From US8999983B2, “Modulators of Hec1 activity and methods therefor” (Taivex Therapeutics Corporation, priority 2011, dated 2015)

Legend:
[1] = system: cancer cells; test: DNA content analysis (propidium iodide, FACS); format: cell-based
Protocol: DNA Content Analysis: Cells were plated in a 10-cm culture plate and cultured overnight. Cells were incubated with the compound for the indicated time and collected at the indicated time points. Cells were fixed with 70% ethanol overnight, stained with propidium iodide solution (1.25 mg/ml propidium iodide (Sigma) and 20 μl/ml […] in PBS) and subjected to fluorescence activated cell sorting (FACS). The results were analyzed by Cell Quest software (BD Biosciences, San Jose Calif. 95131 USA).

[2] = system: Hela; test: Antiproliferation assay (MTS), HeLa cells; format: cell-based; conditions: Homo sapiens, 96 h, Table 1, read-out: Antiproliferative IC50 Hela
Method in brief: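 Cells seeded after overnight attachment were treated in triplicate for 96 h at 37 °C, 5% CO2, final DMSO below 1%. Viability read by MTS absorbance; concentration-response curves fitted by linear regression against DMSO controls.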

[3] = molecular target: T1, hERG potassium channels (Homo sapiens, UniProt Q12809); test: [3H]Astemizole competitive binding assay, hERG; conditions: [3H]-astemizole displacement, hERG membrane protein
T1 construct: purchased PerkinElmer
Protocol: Here, [3H] Astemizole competitive binding assays were performed to determine the ability of compounds to displace the known radioligand [3H]-astemizole from the hERG potassium channels, following standard protocol with minor modifications. In brief, assays were performed in 200 μl of binding buffer (50 mM HEPES, pH 7.4, 60 mM KCl, and 0.1% BSA) containing 1.5 nM of [3H]astemizole, 3 μg/well of hERG membrane protein (PerkinElmer), and TAI-1 (in 1% DMSO final concentration) at 27° C. for 60 min. Nonspecific binding (NSB) was determined in the presence of 10 μM astemizole. […] Binding was terminated by rapid filtration onto polyethyleneimine-presoaked, buffer-washed UniFilter-96, GF/C (Perkin Elmer) using a vacuum manifold (Porvair Sciences). Captured radiolabel signal was detected using TopCount NXT (Perkin Elmer). […] All results are derived from two independent experiments.

[4] = system: caspase-3, PARP, Mcl-1 and XIAP; test: Immunoblot of apoptotic pathway proteins; format: cell-based; conditions: 1 μM, 24 or 48 hours
Protocol: Immunoblot Analysis: For immunoblotting experiments, cells were plated in a 6-well culture plate and cultured overnight. Cells were incubated with the test compounds for the indicated time and whole cell lysate was harvested by adding 1×SDS-PAGE Sample Buffer (62.5 mM Tris-HCl (pH 6.8 at 25° C.), 2% w/v SDS, 10% glycerol, 50 mM DTT, and 0.01% w/v bromophenol blue or phenol red). Proteins were separated by SDS-PAGE electrophoresis and transferred to PVDF membrane. Protein expression was immunoblotted using various primary antibodies and detected using Immobilon Western Chemiluminescent HRP Substrate (Millipore, Billerica Mass. 01821 USA). Antibodies used include anti-Cleaved Caspase3, (Rabbit, Cell Signaling Technology, Danvers Mass. 01923 USA); anti-PARP (Rabbit, Cell Signaling Technology, Danvers Mass. 01923 USA); anti-MCL-1 (mouse, BD Biosciences, San Jose Calif. 95131 USA); anti-XIAP (rabbit, Cell Signaling Technology, Danvers Mass. 01923 USA); anti-Bcl-2 (mouse, Santa Cruz Biotechnology, Santa Cruz Calif. 95060); anti-Cyclin BI (mouse, BD Biosciences, San Jose Calif. 95131 USA); anti-Cyclin D1 (mouse, Santa Cruz Biotechnology, Santa Cruz Calif. 95060); Anti-Nek2 (mouse, BD Biosciences, San Jose Calif. 95131 USA); Anti-HEC1, (rabbit, GeneTex, Inc., Irvine Calif. 92606 USA); and anti-actin (mouse, Millipore, Billerica Mass. 01821 USA).
100 nM Taxol was used as a positive control drug for apoptosis.

[5] = system: Huh-7 xenograft; test: Mouse xenograft study, Huh-7 liver cancer; format: in vivo; conditions: Huh-7 liver cancer xenograft, nude mice

T1 sequence (Q12809 whole entry): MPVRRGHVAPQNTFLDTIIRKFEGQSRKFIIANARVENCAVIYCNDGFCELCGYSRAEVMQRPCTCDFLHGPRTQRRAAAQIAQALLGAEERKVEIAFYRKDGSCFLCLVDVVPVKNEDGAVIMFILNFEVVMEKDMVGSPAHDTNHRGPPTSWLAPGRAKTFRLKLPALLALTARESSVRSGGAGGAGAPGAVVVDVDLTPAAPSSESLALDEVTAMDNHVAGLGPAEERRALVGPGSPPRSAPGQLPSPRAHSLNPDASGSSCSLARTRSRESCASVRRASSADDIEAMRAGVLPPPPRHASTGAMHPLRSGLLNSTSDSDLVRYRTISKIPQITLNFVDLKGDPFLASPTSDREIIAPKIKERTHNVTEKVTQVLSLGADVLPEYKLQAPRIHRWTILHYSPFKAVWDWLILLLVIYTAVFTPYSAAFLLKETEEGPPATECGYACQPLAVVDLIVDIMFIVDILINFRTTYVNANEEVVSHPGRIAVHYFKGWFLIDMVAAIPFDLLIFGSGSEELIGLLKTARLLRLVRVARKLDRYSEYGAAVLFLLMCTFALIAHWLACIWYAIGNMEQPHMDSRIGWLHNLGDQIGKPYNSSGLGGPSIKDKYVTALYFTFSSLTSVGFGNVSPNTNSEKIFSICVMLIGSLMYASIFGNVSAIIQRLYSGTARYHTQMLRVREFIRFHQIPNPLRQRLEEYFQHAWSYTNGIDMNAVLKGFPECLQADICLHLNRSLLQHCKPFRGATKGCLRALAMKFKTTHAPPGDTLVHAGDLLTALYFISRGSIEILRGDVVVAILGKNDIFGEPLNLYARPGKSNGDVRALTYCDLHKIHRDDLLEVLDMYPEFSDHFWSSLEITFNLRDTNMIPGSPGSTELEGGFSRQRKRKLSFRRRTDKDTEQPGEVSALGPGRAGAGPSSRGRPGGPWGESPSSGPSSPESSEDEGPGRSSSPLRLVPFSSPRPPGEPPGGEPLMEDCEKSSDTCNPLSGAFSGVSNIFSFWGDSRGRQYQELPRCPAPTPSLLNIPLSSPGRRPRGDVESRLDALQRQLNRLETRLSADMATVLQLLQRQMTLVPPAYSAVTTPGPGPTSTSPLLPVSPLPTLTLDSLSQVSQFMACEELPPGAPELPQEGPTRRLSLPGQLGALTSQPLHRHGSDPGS

With `COCCOc1cnc(Sc2cc(C)c(-c3csc(NC(=O)c4ccncc4)n3)c(C)c2)cn1` [Compound 27, N-(4-{4-(5-(2-methoxyethoxy)pyrazin-2-ylthio)-2,6-dimethylphenyl}thiazol-2-yl)isonicotinamide] as the compound, how does the “sub-G1 population (apoptotic cells)” value [1] read?
Its value is “increase in the sub-G1 population”.

And the IC50 [2]?
Its IC50 is 21.1 nM.

And the IC50 [3]?
Its IC50 is > 10 µM.

What about the “levels of apoptotic (caspase-3, PARP) and anti-apoptotic (Mcl-1, XIAP) proteins” value [4] of the same compound?
Its value is “cleavage of the apoptotic proteins accompanied by down-regulation of the anti-apoptotic proteins”.

What about the xenograft tumor outgrowth [5] of the same compound?
The xenograft tumor outgrowth was “inhibition of xenograft tumor outgrowth”.
